This is an account of results in US20070060480A1, “Heteroaroyl-substituted phenylalanineamides” (priority 2003, published 2007).

Molecules are shown by their SMILES.

One series deals with Chenopodium album. The series can be described thus: greenhouse post-emergence herbicidal test. Type of series: in vivo. The note with it: for post-emergence activity against lambsquarters: application rate 1.0 kg/ha. The protocol:
(§1) The seeds of the test plants were sown separately for each species. For the post-emergence treatment, the test plants were grown to a plant height of from 3 to 15 cm, depending on the plant habit, and only then treated with the active ingredients which had been suspended or emulsified in water. To this end, the test plants were either sown directly and grown in the same containers, or they were first grown separately as seedlings and transplanted into the test containers a few days prior to treatment. […] (active substance). Depending on the species, the plants were kept at from 10 to 25° C. and 20 to 35° C., respectively. The test period extended over 2 to 4 weeks. During this time, the plants were tended, and their response to the individual treatments was evaluated. Evaluation was carried out using a scale of from 0 to 100. 100 means no emergence of the plants, or complete destruction of at least the aerial parts, and 0 means no damage or normal course of growth. The plants used in the greenhouse experiments belonged to the following species: [table]

A further series has as its system Echinocloa crus-galli. Nature of the series: greenhouse post-emergence herbicidal test. Type of series: in vivo. As to conditions: application rate 1.0 kg/ha. The protocol:
as §1

The test system of another series is Polygonum convolvulus. Nature of the series: greenhouse post-emergence herbicidal test. As to conditions: application rate 1.0 kg/ha. Type of series: in vivo. The protocol: as §1
For a further series, the system named is Setaria viridis. Nature of the series: greenhouse post-emergence herbicidal test. The series is classed as in vivo. The note with it: for post-emergence activity against green foxtail: application rate 1.0 kg/ha. The method, then:
as §1

The next series relates to Galium aparine. The series can be described thus: greenhouse post-emergence herbicidal test. The note with it: application rate 1.0 kg/ha. The series is classed as in vivo. The protocol:
as §1

The test system of the next series is Amaranthus retroflexus. The series can be described thus: greenhouse post-emergence herbicidal test. The series is classed as in vivo. As to conditions: for post-emergence activity against pig weed: application rate 1.0 kg/ha. The protocol:
as §1

With `CNC(=O)C(NC(=O)c1cc(C)oc1C(F)(F)F)C(OC(=O)N(C)C)c1ccccc1` (racemic) [Compound 5.16], the “post-emergence activity against lambsquarters” value with Chenopodium album is on record as “very good”. Besides, in the series with Echinocloa crus-galli, the “post-emergence activity against cockspur” value was “very good”. The “post-emergence activity against black bindweed” value with Polygonum convolvulus is on record as “very good”. In the series on Setaria viridis, the “post-emergence activity against green foxtail” value is reported as “very good”.

As a reminder, the melting point is the temperature, or range, at which the solid turns liquid. `CNC(=O)C(NC(=O)c1cn(C)nc1C(F)(F)F)C(O)c1ccccc1` (racemic) [Compound 4.9, N-(2-Hydroxy-1-methylcarbamoyl-2-phenylethyl)-1-methyl-3-trifluoromethyl-1H-pyrazole-4-carboxamide] yielded a melting point of 216 °C.

Turning to `CNC(=O)C(NC(=O)c1cscc1C(F)(F)F)C(OC(=O)N(C)C)c1ccccc1` (racemic) [Compound 5.8], the “post-emergence activity against lambsquarters” value with Chenopodium album is “very good”. Also, the “post-emergence activity against cockspur” value with Echinocloa crus-galli is recorded as “very good”. For the same molecule, the “post-emergence activity against cleavers harrif” value with Galium aparine was “very good”. Also, in the series on Polygonum convolvulus, the “post-emergence activity against black bindweed” value is on record as “very good”. In addition, the “post-emergence activity against green foxtail” value with Setaria viridis was “very good”.

Turning to `CCC(CC)C(=O)OC(c1ccccc1)C(NC(=O)c1cn(C)nc1C(F)(F)F)C(=O)NC` (racemic) [Compound 4.14], the “post-emergence activity against pig weed” value with Amaranthus retroflexus is “very good”. Also, the “post-emergence activity against lambsquarters” value in the series with Chenopodium album is listed as “very good”. Besides, in the series on Setaria viridis, the “post-emergence activity against green foxtail” value is “very good”.

As to `CNC(=O)C(NC(=O)c1ccsc1C(F)(F)F)C(OC(=O)COC)c1ccccc1` (racemic) [Compound 5.6], in the series with Amaranthus retroflexus, the “post-emergence activity against pig weed” value is “very good”. For the same molecule, the “post-emergence activity against lambsquarters” value in the series with Chenopodium album is “very good”. Further, the “post-emergence activity against green foxtail” value with Setaria viridis is “very good”.

On to `CNC(=O)C(NC(=O)c1cc(C)oc1C(F)(F)F)C(O)c1ccccc1` (racemic) [Compound 5.14], for which the “post-emergence activity against lambsquarters” value in the series with Chenopodium album is given as “very good”. In addition, in the series with Echinocloa crus-galli, the “post-emergence activity against cockspur” value is reported as “very good”. The “post-emergence activity against cleavers harrif” value with Galium aparine is reported as “very good”. Besides, the “post-emergence activity against green foxtail” value in the series with Setaria viridis is recorded as “very good”.

With `CNC(=O)C(NC(=O)c1cn(C)nc1C(F)(F)F)C(OS(C)(=O)=O)c1ccccc1` (racemic) [Compound 4.22], the “post-emergence action on pig weed” value with Amaranthus retroflexus (application rate 0.5 kg/ha) is on record as “very good”. Further, in the series with Chenopodium album (application rate 0.5 kg/ha), the “post-emergence action on lambsquarters” value is on record as “very good”. The “post-emergence action on green foxtail” value in the series with Setaria viridis (application rate 0.5 kg/ha) is “very good”.

`CNC(=O)C(NC(=O)c1cn(C)nc1C(F)(F)F)C(OC(=O)C(C)(C)C)c1ccccc1` (racemic) [Compound 4.15, 2-Methylcarbamoyl-2-[(1-methyl-3-trifluoromethyl-1H-pyrazole-4-carbonyl)amino]-1-phenylethyl 2,2-dimethylpropionate] showed a melting point of 158 °C.

For `CNC(=O)C(NC(=O)c1ccncc1C(F)(F)F)C(O)c1ccccc1` (racemic) [Compound 5.23], in the series with Amaranthus retroflexus, the “post-emergence activity against pig weed” value is reported as “very good”. Moreover, in the series on Chenopodium album, the “post-emergence activity against lambsquarters” value is listed as “very good”. Also, the “post-emergence activity against cleavers harrif” value in the series on Galium aparine is listed as “very good”. Moreover, in the series with Setaria viridis, the “post-emergence activity against green foxtail” value was “very good”.

As to `CNC(=O)C(NC(=O)c1cn(C)nc1C(F)(F)F)C(C)c1ccccc1C` (mixture of isomers) [Compound 4.6], the “post-emergence activity against pig weed” value in the series on Amaranthus retroflexus was “very good”. In addition, in the series with Chenopodium album, the “post-emergence activity against lambsquarters” value is reported as “very good”. The “post-emergence activity against green foxtail” value with Setaria viridis was “very good”.
